# From publication PMC8476055, “Synthesis and Biological Activity of Triterpene–Coumarin Conjugates” (Journal of Natural Products, 2021)
# Several values for one entry are separate records, joined by “and”; a condition that tells them apart may be missing. Equal entries are not always repeated.
# Experiments:
# [1] = tested on: B16–F10 murine melanoma cells; experiment: MTT cell proliferation assay, B16–F10 cells; format: cell-based; settings: Mus musculus, 72 h treatment, untreated control = 100% viability, read-out: IC50, growth inhibition of B16–F10 cells
# Description: These studies were performed using a 3-(4,5-dimethylthiazol-2-yl)-2,5-diphenyltetrazolium bromide (MTT) assay, with increasing concentration levels of each compound (0–200 μg/mL). Cell viability was determined after treatment for 72 h, by absorption of a formazan dye.
# […] ATTC HTB-38), Hep G2 human hepatocyte carcinoma cells (ECACC 85011430), nontumor human epithelial lung fibroblast cells HPF (ScienCell catalog (cat.) no. 3300), nontumor rat ileum cells IEC-18 (ECACC no. 88011801), and nontumor human embryo liver cells (ECACC 89121403) were cultured in DMEM medium supplemented with 2 mM glutamine, 10% heat-inactivated fetal bovine serum (FCS), 10.000 units/mL penicillin, and […]. These cells were incubated at 37 °C in an atmosphere of 5% CO2 and 95% humidity. The culture media were changed every 48 h, and the confluent cultures were separated with a trypsin solution (0.25% EDTA). Subconfluent monolayer cells were used in all experiments. All cell lines used were provided by the cell bank of the University of Granada (Spain).
# The effect of the synthesized compounds on the viability of tumor cells was assessed using an MTT assay, based on the ability of living cells to cleave the tetrazolium ring, thus producing formazan, which absorbs at 570 nm. […] For an evaluation of the cytotoxic effects of these compounds, the cells were seeded in 96-well plates at an initial density of 5 × 10^3 B16–F10 cells, 6 × 10^3 HT29 cells, 15 × 10^3 Hep G2 cells, 8 × 10^3 HPF cells, 15 × 10^3 IEC-18 cells, and 11 × 10^3 WRL68 cells, per well. After incubation for 24 h, the cells were treated with the synthesized compounds in triplicate, at different concentrations (0–200 μg/mL), and incubated for 72 h. Thereafter, 100 μL of MTT solution (0.5 mg/mL) were added to each well. After 2 h of incubation, the cells were washed twice with phosphate buffered saline (PBS), and the formazan was resuspended in 100 μL of DMSO. Relative cell viability, with respect to untreated control cells, was measured by absorbance at 550 nm on an ELISA plate reader (Tecan Sunrise MR20-301, TECAN, Austria). […] These experiments were measured and compared to the control after 72 h of treatment.
# [2] = tested on: HT29 cells; experiment: Mitochondrial-membrane potential (Rh123) flow cytometry, HT29; format: cell-based, human; settings: HT29, 72 h at IC50 concentration
# Description: (§1) The study of the loss of the mitochondrial-membrane potential (MMP) of tumor cells, when treated with drugs, can provide information on the activation mechanism of apoptosis. This activation can occur extrinsically when MMP is not altered, and intrinsically when a loss of this potential is caused by mitochondrial disruption. […] The values of percentage of cell population were expressed as means ± SEM of at least two experiments in duplicate. Changes in MMP were analyzed by monitoring cell fluorescence after staining with rhodamine 123 (Rh123).
# (§2) The electrochemical gradient across the mitochondrial membrane was examined by analytical flow cytometry, using dihydrorhodamine (DHR), which in contact with living cells, oxidized to form highly fluorescent rhodamine 123 (Rh123). The fluorescence emitted can be monitored by fluorescence spectroscopy using excitation and emission wavelengths of 500 and 536 nm, respectively. […] Following treatment, the culture medium was renewed with fresh medium by adding 0.5 mL of DHR, for a final concentration of […]. Cells were incubated for 1 h at 37 °C in an atmosphere of 5% CO2 and 95% humidity and subsequently washed and resuspended in PBS. The fluorescence intensity was measured using a FACScan flow cytometer (fluorescence-activated cell sorter). The experiments were performed three times with two replicates per assay.
# [3] = tested on: B16–F10 cells; experiment: Mitochondrial-membrane potential (Rh123) flow cytometry, B16–F10; format: cell-based, murine; settings: B16–F10, 72 h at IC50 concentration
# Description: as §1, §2
# [4] = tested on: Hep G2 cells; experiment: Annexin V-FITC/PI flow cytometry (apoptosis), Hep G2; format: cell-based, human; settings: Hep G2, 72 h at IC50 concentration, mean ± S.E.M.
# Description: In consideration of the cytotoxic results of these triterpene conjugates with the three cell lines assayed, three MA–diamine–coumarin conjugates (1, 4, and 7) and the MA–coumarin conjugate 10 were selected for the following cytometry studies on the three cancer cell lines. Thus, the apoptotic determination assays were performed through double staining with Annexin V (An-V), conjugated fluorescein isothiocyanate (FITC), and propidium iodide (PI). […] The values of percentage of total apoptosis were expressed as means ± SEM of at least two duplicate experiments (Figure 1).
# Apoptosis was assessed by flow cytometry using a FACScan (fluorescence-activated cell sorter) flow cytometer (Coulter Corporation, Hialeah, FL, USA). For these assays, 5 × 10^4 B16–F10, 6 × 10^4 HT29 cells, and 15 × 10^4 Hep G2 cells were placed in 24-well plates with 1.5 mL of medium and incubated for 24 h. Subsequently, the cells were treated with the selected compounds in triplicate for 72 h at their corresponding IC50 concentrations. The cells were collected and resuspended in a binding buffer (10 mM HEPES/NaOH, pH 7.4, 140 mM NaCl, 2.5 mM CaCl2). Annexin V-FITC conjugate (1 mg/mL) was then added and incubated for 15 min at room temperature in darkness. Just before the analysis by flow cytometry, cells were stained with 20 μL of 1 mg/mL PI solution. In each experiment, approximately 10 × 10^3 cells were analyzed, and the experiment was duplicated twice.
IC50 [1],melting point,SMILES,Rh123 staining (mitochondrial-membrane potential) [2],Rh123 staining (mitochondrial-membrane potential) [3],Early Apoptosis [4],Late Apoptosis [4],Necrosis [4],Total Apoptosis [4],Viable Cells [4]
> 10 µM,69 to 71 °C,"CC1(C)CC[C@]2(C(=O)NCCCNC(=O)c3cc4ccccc4oc3=O)CC[C@]3(C)C(=CC[C@@H]4[C@@]5(C)C[C@@H](O)[C@H](O)C(C)(C)[C@@H]5CC[C@]43C)[C@@H]2C1 [Compound 1, 2α,3β-Dihydroxy-N-(3′-(2″-oxo-2″H-chromene-3″-carboxamido)propyl)olean-12-en-28-amide]",positive Rh123 staining,positive Rh123 staining,50.1 ± 4.5%,19.4 ± 4.8%,1.8 ± 0.4%,69.5 ± 2.3%,28.8 ± 2.8%
> 10 µM,143 to 145 °C,"CC1(C)CC[C@]2(C(=O)NCCCNC(=O)Cc3cc(=O)oc4cc(O)ccc34)CC[C@]3(C)C(=CC[C@@H]4[C@@]5(C)C[C@@H](O)[C@H](O)C(C)(C)[C@@H]5CC[C@]43C)[C@@H]2C1 [Compound 4, 2α,3β-Dihydroxy-N-(3′-(2″-(7‴-hydroxy-2‴-oxo-2‴H-chromen-4‴-yl)acetamido)propyl)olean-12-en-28-amide]",positive Rh123 staining,positive Rh123 staining,48.5 ± 3.8%,20.1 ± 5.3%,1.9 ± 0.2%,68.5 ± 1.6%,29.7 ± 1.3%
10.4 ± 0.2 µM,123 to 125 °C,"CC1(C)CC[C@]2(C(=O)NCCCNC(=O)/C=C/c3ccc(O)cc3)CC[C@]3(C)C(=CC[C@@H]4[C@@]5(C)C[C@@H](O)[C@H](O)C(C)(C)[C@@H]5CC[C@]43C)[C@@H]2C1 [Compound 7, 2α,3β-Dihydroxy-N-(3′-((E)-3″-(4‴-hydroxyphenyl)acrylamido)propyl)olean-12-en-28-amide]",positive Rh123 staining,positive Rh123 staining,57.4 ± 4.3%,18.6 ± 3.2%,2.2 ± 0.6%,75.9 ± 2.0% and 76%,21.9 ± 1.3%
0.6 µM,200 to 202 °C,CC1(C)CC[C@]2(C(=O)O)CC[C@]3(C)C(=CC[C@@H]4[C@@]5(C)C[C@@H](OC(=O)c6cc7ccccc7oc6=O)[C@H](OC(=O)c6cc7ccccc7oc6=O)C(C)(C)[C@@H]5CC[C@]43C)[C@@H]2C1 [Compound 10],positive Rh123 staining,positive Rh123 staining,19.2 ± 4.9%,21.6 ± 3.2%,4.2 ± 1.1%,40.8 ± 3.2%,55.0 ± 1.4%
